Data on 15 molecules can be found in ChEMBL document CHEMBL3046000, “Design and synthesis of 1-(benzothiazol-5-yl)-1H-1,2,4-triazol-5-ones as protoporphyrinogen oxidase inhibitors” (Bioorg Med Chem, 2013).

Structures are written as SMILES. A value given as a limit tells only on which side of the number the result lay.

The test system of test [1] is Brassica juncea. Kind of test: Post-emergence herbicidal activity against Brassica juncea seedlings assessed as plant growth inhibition at 150 g ai/ha measured 15 days after compound treatment under greenhouse conditions. The conditions noted are these: 360 h, read-out: GI. The format is functional.
In test [2] the test system is Amaranthus retroflexus. Briefly: Post emergence herbicidal activity against Amaranthus retroflexus seedlings assessed as plant growth inhibition at 150 g ai/ha measured 15 days after compound treatment under greenhouse conditions. The format is functional. As to conditions: 360 h, read-out: GI.
Test [3] relates to Setaria faberi. Briefly: Post-emergence herbicidal activity against Setaria faberi (Giant Foxtail) seedlings assessed as plant growth inhibition at 150 g ai/ha measured 15 days after compound treatment under greenhouse conditions. Format: functional. The conditions noted are these: 360 h, read-out: GI.
Test [4] concerns the target T1, Protoporphyrinogen oxidase, chloroplastic (Nicotiana tabacum, UniProt O24163).
T1 sequence (O24163 whole entry): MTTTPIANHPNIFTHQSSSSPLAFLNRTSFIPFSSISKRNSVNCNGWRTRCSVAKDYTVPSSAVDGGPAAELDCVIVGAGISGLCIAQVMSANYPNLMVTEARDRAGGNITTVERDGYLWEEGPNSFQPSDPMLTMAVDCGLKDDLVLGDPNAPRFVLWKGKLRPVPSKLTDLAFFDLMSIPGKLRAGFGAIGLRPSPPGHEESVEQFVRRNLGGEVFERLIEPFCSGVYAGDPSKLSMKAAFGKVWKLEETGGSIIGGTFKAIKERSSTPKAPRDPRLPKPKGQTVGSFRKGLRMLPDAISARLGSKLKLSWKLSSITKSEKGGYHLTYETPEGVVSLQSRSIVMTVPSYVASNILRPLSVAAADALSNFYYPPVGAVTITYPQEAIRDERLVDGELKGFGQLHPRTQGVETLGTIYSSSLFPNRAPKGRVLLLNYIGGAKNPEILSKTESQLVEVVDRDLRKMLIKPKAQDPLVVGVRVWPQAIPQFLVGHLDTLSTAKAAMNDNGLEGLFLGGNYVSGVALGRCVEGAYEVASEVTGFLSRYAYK
Kind of test: Inhibition of Nicotiana tabacum (tobacco) recombinant PPO assessed as protoporphyrin IX formation at room temperature by fluorimetric assay.

For test [5], the system named is Digitaria sanguinalis. Kind of test: Post-emergence herbicidal activity against Digitaria sanguinalis (hairy crabgrass) seedlings assessed as plant growth inhibition at 150 g ai/ha measured 15 days after compound treatment under greenhouse conditions. The format is functional. As to conditions: 360 h, read-out: GI.
Test [6] deals with Chenopodium album. Briefly: Post-emergence herbicidal activity against Chenopodium album seedlings assessed as plant growth inhibition at 150 g ai/ha measured 15 days after compound treatment under greenhouse conditions. The format is functional. The conditions noted are these: 360 h, read-out: GI.
Test [7] concerns Echinochloa crus-galli. Briefly: Post emergence herbicidal activity against Echinochloa crus-galli (barnyard grass) seedlings assessed as plant growth inhibition at 150 g ai/ha measured 15 days after compound treatment under greenhouse conditions. The conditions noted are these: 360 h, read-out: GI. Format: functional.
Test [8] concerns Echinochloa crus-galli. Briefly: Post emergence herbicidal activity against Echinochloa crus-galli (barnyard grass) seedlings assessed as plant growth inhibition at 75 g ai/ha measured 15 days after compound treatment under greenhouse conditions. The format is functional. As to conditions: 360 h, read-out: GI.
Test [9] concerns Setaria faberi. Briefly: Post-emergence herbicidal activity against Setaria faberi (Giant Foxtail) seedlings assessed as plant growth inhibition at 75 g ai/ha measured 15 days after compound treatment under greenhouse conditions. The format is functional. As to conditions: 360 h, read-out: GI.
Test [10] deals with Echinochloa crus-galli. Briefly: Post emergence herbicidal activity against Echinochloa crus-galli (barnyard grass) seedlings assessed as plant growth inhibition at 37.5 g ai/ha measured 15 days after compound treatment under greenhouse conditions. The format is functional. As to conditions: 360 h, read-out: GI.
The test system of test [11] is Setaria faberi. Briefly: Post-emergence herbicidal activity against Setaria faberi (Giant Foxtail) seedlings assessed as plant growth inhibition at 37.5 g ai/ha measured 15 days after compound treatment under greenhouse conditions. The conditions noted are these: 360 h, read-out: GI. Format: functional.
The subject of test [12] is Digitaria sanguinalis. Briefly: Post-emergence herbicidal activity against Digitaria sanguinalis (hairy crabgrass) seedlings assessed as plant growth inhibition at 75 g ai/ha measured 15 days after compound treatment under greenhouse conditions. Format: functional. As to conditions: 360 h, read-out: GI.
Test [13] deals with Chenopodium album. Briefly: Post-emergence herbicidal activity against Chenopodium album seedlings assessed as plant growth inhibition at 75 g ai/ha measured 15 days after compound treatment under greenhouse conditions. Format: functional. The conditions noted are these: 360 h, read-out: GI.
The test system of test [14] is Digitaria sanguinalis. Kind of test: Post-emergence herbicidal activity against Digitaria sanguinalis (hairy crabgrass) seedlings assessed as plant growth inhibition at 37.5 g ai/ha measured 15 days after compound treatment under greenhouse conditions. Format: functional. As to conditions: 360 h, read-out: GI.
In test [15] the test system is Chenopodium album. Kind of test: Post-emergence herbicidal activity against Chenopodium album seedlings assessed as plant growth inhibition at 37.5 g ai/ha measured 15 days after compound treatment under greenhouse conditions. Format: functional. The conditions noted are these: 360 h, read-out: GI.
Test [16] concerns Amaranthus retroflexus. Kind of test: Post emergence herbicidal activity against Amaranthus retroflexus seedlings assessed as plant growth inhibition at 37.5 g ai/ha measured 15 days after compound treatment under greenhouse conditions. Format: functional. The conditions noted are these: 360 h, read-out: GI.
Test [17] concerns Brassica juncea. Kind of test: Post-emergence herbicidal activity against Brassica juncea seedlings assessed as plant growth inhibition at 37.5 g ai/ha measured 15 days after compound treatment under greenhouse conditions. Format: functional. As to conditions: 360 h, read-out: GI.
Test [18] relates to Amaranthus retroflexus. Kind of test: Post emergence herbicidal activity against Amaranthus retroflexus seedlings assessed as plant growth inhibition at 75 g ai/ha measured 15 days after compound treatment under greenhouse conditions. The format is functional. The conditions noted are these: 360 h, read-out: GI.
The subject of test [19] is Brassica juncea. Kind of test: Post-emergence herbicidal activity against Brassica juncea seedlings assessed as plant growth inhibition at 75 g ai/ha measured 15 days after compound treatment under greenhouse conditions. The format is functional. As to conditions: 360 h, read-out: GI.

With `C=CCSc1nc2cc(-n3nc(C)n(C(F)F)c3=O)c(Br)cc2s1`, the inhibition of growth at 150 g/ha was 50% in the test on Brassica juncea [1]; 60% with Amaranthus retroflexus [2]; 60% with Setaria faberi [3]; less than 50% in the test on Digitaria sanguinalis [5]; 50% in the test with Chenopodium album [6]; less than 50% with Echinochloa crus-galli [7]. Besides, the Ki in [4] worked out at 12.8 µM.
In the case of `Cc1nn(-c2cc3nc(SCC(=O)O)sc3cc2F)c(=O)n1C(F)F`, the inhibition of growth at 75 g/ha in the test on Echinochloa crus-galli [8] is 50%; with Setaria faberi [9] it was 50%; with Digitaria sanguinalis [12] it was less than 50%; in the test with Chenopodium album [13] it was 80%; with Amaranthus retroflexus [18], not below 90%; in the test with Brassica juncea [19], 80%. Also, the inhibition of growth at 150 g/ha in the test with Brassica juncea [1], in the test on Amaranthus retroflexus [2], with Setaria faberi [3], with Digitaria sanguinalis [5], in the test with Chenopodium album [6] and with Echinochloa crus-galli [7] was not below 90% throughout. In addition, the inhibition of growth at 37.5 g/ha in the test with Echinochloa crus-galli [10] is 50%; in the test with Setaria faberi [11] it was 50%; in the test with Digitaria sanguinalis [14], less than 50%; in the test on Chenopodium album [15], 80%; with Amaranthus retroflexus [16], not below 90%; in the test on Brassica juncea [17] it was less than 50%. In test [4], the Ki turned out to be 1.52 µM.
Turning to `CSc1nc2cc(-n3nc(C)n(C(F)F)c3=O)c(Cl)cc2s1`, the inhibition of growth at 150 g/ha in the test on Brassica juncea [1] was 60%; in the test on Amaranthus retroflexus [2] it was 50%; in the test with Setaria faberi [3] it was less than 50%; in the test with Digitaria sanguinalis [5], 50%; in the test with Chenopodium album [6], 50%; in the test with Echinochloa crus-galli [7], less than 50%. Also, the Ki in test [4] is 13.9 µM.
As for `CCCSc1nc2cc(-n3nc(C)n(C(F)F)c3=O)c(Cl)cc2s1`, the inhibition of growth at 150 g/ha in the test with Brassica juncea [1] is not below 90%; with Amaranthus retroflexus [2], 60%; with Setaria faberi [3] it was less than 50%; in the test on Digitaria sanguinalis [5], less than 50%; in the test with Chenopodium album [6] it was 50%; with Echinochloa crus-galli [7] it was less than 50%. The Ki in test [4] worked out at 2.01 µM.
Regarding `C=CCSc1nc2cc(-n3nc(C)n(C(F)F)c3=O)c(Cl)cc2s1`, the inhibition of growth at 150 g/ha was 60% in the test on Brassica juncea [1]; 60% with Amaranthus retroflexus [2]; 60% in the test with Setaria faberi [3]; less than 50% with Digitaria sanguinalis [5]; less than 50% in the test on Chenopodium album [6]; 60% in the test with Echinochloa crus-galli [7]. Further, the Ki in test [4] came out at 3.13 µM.
Regarding `CCCCSc1nc2cc(-n3nc(C)n(C(F)F)c3=O)c(Cl)cc2s1`, the inhibition of growth at 150 g/ha was 50% with Brassica juncea [1]; less than 50% in the test on Amaranthus retroflexus [2]; less than 50% with Setaria faberi [3]; less than 50% in the test on Digitaria sanguinalis [5]; less than 50% with Chenopodium album [6]; less than 50% in the test with Echinochloa crus-galli [7]. Moreover, the Ki in [4] turned out to be 2.97 µM.
On to `COC(=O)Sc1nc2cc(-n3nc(C)n(C(F)F)c3=O)c(Cl)cc2s1`, for which the inhibition of growth at 150 g/ha with Brassica juncea [1], in the test with Amaranthus retroflexus [2], in the test with Setaria faberi [3], with Digitaria sanguinalis [5], with Chenopodium album [6] and in the test with Echinochloa crus-galli [7] was less than 50% each time.
As for `CCOC(=O)Sc1nc2cc(-n3nc(C)n(C(F)F)c3=O)c(Cl)cc2s1`, the inhibition of growth at 150 g/ha in the test on Brassica juncea [1], in the test with Amaranthus retroflexus [2], with Setaria faberi [3], with Digitaria sanguinalis [5], in the test with Chenopodium album [6] and in the test with Echinochloa crus-galli [7] was less than 50% throughout.
Regarding `CCOC(=O)C(C)Sc1nc2cc(-n3nc(C)n(C(F)F)c3=O)c(Cl)cc2s1` (configuration not stated), the inhibition of growth at 150 g/ha is not below 90% in the test on Brassica juncea [1]; not below 90% with Amaranthus retroflexus [2]; 80% with Setaria faberi [3]; 80% in the test with Digitaria sanguinalis [5]; 60% in the test on Chenopodium album [6]; 80% with Echinochloa crus-galli [7]. The Ki in test [4] was 3.39 µM.
On to `CCOC(=O)CSc1nc2cc(-n3nc(C)n(C(F)F)c3=O)c(Cl)cc2s1`, for which the inhibition of growth at 150 g/ha is not below 90% with Brassica juncea [1]; 80% with Amaranthus retroflexus [2]; 80% with Setaria faberi [3]; not below 90% in the test on Digitaria sanguinalis [5]; less than 50% with Chenopodium album [6]; not below 90% in the test on Echinochloa crus-galli [7]. Further, the Ki in test [4] was 1.37 µM.
Regarding `CSc1nc2cc(-n3nc(C)n(C(F)F)c3=O)c(F)cc2s1`, the inhibition of growth at 150 g/ha was less than 50% with Brassica juncea [1]; 80% with Amaranthus retroflexus [2]; 50% in the test on Setaria faberi [3]; less than 50% with Digitaria sanguinalis [5]; less than 50% in the test on Chenopodium album [6]; 50% with Echinochloa crus-galli [7]. Besides, the Ki in [4] worked out at 0.51 µM.
For `CCCSc1nc2cc(-n3nc(C)n(C(F)F)c3=O)c(F)cc2s1`, the inhibition of growth at 150 g/ha in the test with Brassica juncea [1] was 60%; with Amaranthus retroflexus [2], 60%; in the test on Setaria faberi [3], 60%; in the test on Digitaria sanguinalis [5] it was 80%; in the test with Chenopodium album [6] it was less than 50%; in the test on Echinochloa crus-galli [7], 60%. Moreover, the Ki in test [4] was 0.3 µM.
As to `C=CCSc1nc2cc(-n3nc(C)n(C(F)F)c3=O)c(F)cc2s1`, the inhibition of growth at 150 g/ha in the test on Brassica juncea [1] was less than 50%; in the test with Amaranthus retroflexus [2], 50%; with Setaria faberi [3] it was 60%; in the test on Digitaria sanguinalis [5] it was 60%; in the test on Chenopodium album [6], less than 50%; in the test with Echinochloa crus-galli [7] it was 80%. For the same molecule, the Ki in [4] came out at 0.2 µM.
In the case of `CCCCSc1nc2cc(-n3nc(C)n(C(F)F)c3=O)c(F)cc2s1`, the inhibition of growth at 150 g/ha was 60% in the test on Brassica juncea [1]; 60% in the test with Amaranthus retroflexus [2]; 80% in the test on Setaria faberi [3]; 80% with Digitaria sanguinalis [5]; less than 50% with Chenopodium album [6]; 60% with Echinochloa crus-galli [7]. The Ki in test [4] came to 0.21 µM.
Take `CCOC(=O)CSc1nc2cc(-n3nc(C)n(C(F)F)c3=O)c(F)cc2s1`: the inhibition of growth at 75 g/ha in the test with Echinochloa crus-galli [8] is 50%; in the test with Setaria faberi [9], less than 50%; with Digitaria sanguinalis [12], 50%; with Chenopodium album [13], 80%; in the test on Amaranthus retroflexus [18], 80%; with Brassica juncea [19], 80%. Besides, the inhibition of growth at 150 g/ha is not below 90% in the test with Brassica juncea [1]; 60% in the test on Amaranthus retroflexus [2]; not below 90% in the test with Setaria faberi [3]; not below 90% with Digitaria sanguinalis [5]; 80% with Chenopodium album [6]; not below 90% in the test with Echinochloa crus-galli [7]. Further, the inhibition of growth at 37.5 g/ha in the test with Echinochloa crus-galli [10] is less than 50%; with Setaria faberi [11] it was less than 50%; in the test with Digitaria sanguinalis [14], less than 50%; in the test with Chenopodium album [15], 80%; in the test on Amaranthus retroflexus [16], 80%; with Brassica juncea [17] it was 80%. Besides, the inhibition constant Ki in test [4] came to 0.06 µM.

What is called Ki is the equilibrium dissociation constant of an inhibitor or competing ligand from its target.
